The text below walks through data of US8268805B2, “Use of ceramides for depigmenting the skin” (L'Oreal, priority 2005, dated 2012).

For experiment [1], the system named is coculture of keratinocytes and melanocytes. The experiment in a line: Modulatory effect on melanogenesis: inhibition of melanin synthesis (thiouracil/leucine incorporation ratio). It counts as cell-based. To be noted: ratio of thiouracil to leucine incorporation related to 100% of control, read-out: IC50 (concentration for which 50% of the melanin synthesis is inhibited). How it is done:
The modulatory effect on melanogenesis of the compounds tested was measured according to the method described in patent FR-A-2734825, and also in the article by R. Schmidt, P. Krien and M. Regnier, Anal. Biochem., 235(2), 113-18, 1996. This test is carried out on a coculture of keratinocytes and melanocytes.
For the compound tested, the inhibitory activity on melanin synthesis was determined by estimating the ratio of thiouracil incorporation to leucine incorporation, related to 100% of the control (the control corresponds to the test carried out without compound to be tested). The IC50 values (concentration for which 50% of the melanin synthesis is inhibited) were determined.
The test was also carried out with arbutin and lucinol (2-butylbenzene-1,3-diol), which are known depigmenting compounds.

Experiment [2] relates to tyrosinase activity of the melanocytes of human skin. The conditions noted are these: cited from earlier work.

As for `OC[C@H]1O[C@@H](Oc2ccc(O)cc2)[C@H](O)[C@@H](O)[C@@H]1O` [Arbutin], the IC50 in experiment [1] was determined as 209000 nM. Same read-out and setting: with `CCCCCCCCCCCCCCCC(O)C(CO)NC(=O)C(O)CCCCCCCCCCCCCC` (centres unmarked) [N-2-hydroxypalmitoyldihydrosphingosine] the figure was 100 nM. `CCCCCCCCCCCCC/C=C/[C@@H](O)[C@H](CO)NC(C)=O` [N-acetyl-D-erythrosphingosine]: in experiment [2], the “effect on the tyrosinase activity of the melanocytes of human skin” value is listed as “has an effect”.

Consider `CCCCCCCC/C=C\CCCCCCCC(=O)NC(CO)C(O)CCCCCCCCCCCCCCC` (centres unmarked) [N-oleoyldihydrosphingosine], for which the IC50 in experiment [1] is 100 nM. On to `CCCCCCCCCCCCC/C=C/[C@@H](O)[C@@H](N)COP(=O)(O)O` [sphingosine-1-phosphate], for which the “effect on the tyrosinase activity of the melanocytes of human skin” value in experiment [2] was “no effect”.
